Here are results for five compounds from patent US12226450B2, “Peptides and methods for treating disease” (OP-T LLC, priority 2019, dated 2025).

Where no end group is shown, it is not given here.

The test system of one series is CD4+ and CD8+ cells. Put plainly: CD4/CD8 ratio in blood of peptide-treated NOD mice by flow cytometry. The format is in vivo, mouse. The settings on record: 25 ug tail vein weekly. The protocol: (§1) Peptides were designed based on the amino acid sequence of mouse CD154 protein (SEQ ID NO:1) in the SwissPro database. […] Weekly after the initial injection, another 25 ug of peptide (or 100 ul of PBS in the case of the Control mice) was injected into the tail vein. At 10 weeks of age, mice were monitored for diabetes, as indicated by a blood glucose level greater than 250 mg/dL for three consecutive days. During this time, blood was also taken from the tail vein, or by sub-mandibular venal puncture, and the level of CD4+ and CD8+ cells determined by flow cytometry using antibodies for CD4 protein and CD8 protein.
A general note: In flow cytometry, cells or beads pass a laser one at a time.

Series [1] relates to CD3+CD4+CD40+(Th40) splenic cells. The experiment in a line: Inflammatory cytokines in cultured Th40 splenic cells from ApoE−/− mice. The format is cell-based, mouse. Conditions: overnight culture, varying concentrations, compared to the untreated cells. The method, then: FIG. 24 provides a graph showing that different concentrations of peptide of SEQ ID NO:46 affects or influences levels of IL-2, IFNγ, and IL-17A. In this study, CD3+CD4+CD40+(Th40) splenic cells were purified from ApoE^−/− with cardiovascular disease. The cells were cultured overnight in the absence/presence of varying concentrations of KGYY6 peptide.

The subject of series [2] is NOD mice. Put plainly: Development of diabetes in NOD mice treated with CD154 peptide fragments. It counts as in vivo, mouse. The settings on record: 25 ug (1 mg/kg) tail vein weekly from 6 weeks of age; diabetes = blood glucose greater than 250 mg/dL for three consecutive days. The protocol: as §1
The next series relates to diabetic dogs. Put plainly: Safety in treated diabetic dogs: blood counts, chemistry panels, adverse effects. The format is in vivo, dog. The protocol:
Five diabetic dogs including 4 new onset and 1 long-term, (diagnosis greater than 3 years) were recruited into a test case study. The dogs were enrolled at Colorado State University Veterinary Hospital (CSU-VH), Fort Collins, CO for the study. Each dog was assessed by a Board-Certified Veterinarian. Blood samples were collected from each dog and analyzed by chemistry panels to determine general health, as well as assessed by complete physical examination. The dogs were each confirmed diabetic, blood glucose ranging from 300-600 mg/dl but were generally in good health otherwise. One dog was diagnosed with hypertension, and two dogs had eye problems, partial blindness and the long-term dog was completely blind from diabetes.
Breeds were varied and sizes ranged from 8 to 27 kilos. Four of the dogs had been diagnosed for 3 months or less, 1 dog was diagnosed for 3.5 years. All dogs were receiving daily insulin treatments. The route of administration was IV infusion of SEQ ID NO. 13 over 30 minutes at 2 mg/kg on Days 0, 4, 8 and then weekly thereafter for a total of 8 weeks. The dogs were treated with the dog-sequence (SEQ ID NO: 13—VLRWAPKGYYTISSN); acetate salt form; brought up in sterile PBS for injection; injection was done as a slow infusion over 30 minutes. […] The dog diagnosed for 3.5 years experienced an improvement of time-in-range (percentage of a 24-hour period that blood glucose ranged between 80 and 160) from 10% to 80% for 5 consecutive days in the 5th week and achieved this for the last 3 test weeks. Typical responses in all five dogs was that 3-5 days post treatment improvements in blood glucose occurred. For example, blood glucose would move from 400 to 120, remain stable for 2 days but return to elevated levels. In all the treated dogs, glucose spikes were at lower levels, 300 mg/dl as a high, compared to >500 mg/dl prior to treatment. In fact, prior to treatment, none of the dogs recorded blood glucose levels less than 350. During treatment dogs were at 200 mg/dl or lower the majority of the time and in many cases were at 150 mg/dl or less.
Prior to treatment blood samples were analyzed for blood glucose levels and Th40 cell percentages in peripheral blood. These pre-treatment Th40 cell levels and blood glucose levels can be seen in FIGS. 15, 16, and 17. In FIG. 15, controls are blood samples from test beagles used by CSU-VH and were all confirmed non-diabetic (i.e. not diabetic). […] On day 0, prior to the first treatment, blood was collected from leg vein and analyzed for Th40 cell percentages. […] Samples were analyzed for Th40 cells by flow cytometry. Furthermore, isolated blood was processed to obtain lymphocytes. […] The percentage of CD4+CD40+ as a subset of total CD4+ cells was determined and graphed. […]

Series [3] concerns NOD mice. Put plainly: Hyperglycemia in diabetic NOD mice treated with KGYY-15. The format is in vivo, mouse. Conditions: control treatments, blood glucose between 250-400 mg/dl. The method, then: In this study, NOD mice, blood glucose between 250-400 mg/dl were treated with KGYY-15. Control mice were treated with MR1 an anti-CD154 antibody or scrambled 15-mer peptide (SEQ ID NO: 17). KGYY-15 (SEQ ID NO: 11) reduced blood glucose in 57% of mice treated, the controls MR1 and scrambled 15-mer peptide had no effect.

[4] abbreviates: diabetic dogs, IV infusion 2 mg/kg.

In the case of `CSCC[C@H](NC(=O)[C@@H](NC(=O)[C@H](Cc1ccc(O)cc1)NC(=O)[C@H](Cc1ccc(O)cc1)NC(=O)CNC(=O)[C@H](CCCCN)NC(=O)[C@H](CCCCN)NC(=O)[C@H](C)NC(=O)[C@H](Cc1c[nH]c2ccccc12)NC(=O)[C@H](CCC(N)=O)NC(=O)[C@H](CC(C)C)NC(=O)[C@@H](N)C(C)C)[C@@H](C)O)C(=O)N[C@@H](CCCCN)C(=O)N[C@@H](CO)C(=O)N[C@@H](CC(N)=O)C(=O)O` [15-mer peptide, VLQWAKKGYYTMKSN], the “compromise of the immune system, as determined by the CD4/CD8 ratio” value in the series with CD4+ and CD8+ cells is “did not result in compromise of the immune system”.

“AKKGYY (not fully specified (C-terminus)) [KGYY6]”: in series [1], the IFNγ result was “varying degrees of reduction”, the IL-2 entry is “varying degrees of reduction” and the IL-17A entry is reported as “varying degrees of reduction”.

Take “VLQWAKKGYYTMK (not fully specified (C-terminus)) [13-mer peptides]”: in the series with NOD mice [2], the development of diabetes result is given as “significant effects on the development of diabetes”.

On to “VLRWAPKGYYTISSN [SEQ ID NO: 13, VLRWAPKGYYTISSN]”, for which, in the series with diabetic dogs (setting [4]), the adverse effects entry is given as “None of the dogs experienced any adverse effects”; the chemistry panel numbers result is given as “normal”; the “impact on WBC and RBC” value is recorded as “no negative impacts”. Besides, the “blood chemistry panels versus samples prior to treatment” value in the series on diabetic dogs (each improved from blood samples prior to treatment) is listed as “normal levels on most parameters”.

Regarding “YKNVKQMAYWLTGKS [scrambled 15-mer peptide]”, in the series on NOD mice [3], the “effect on blood glucose” value is on record as “no effect”.
